Measured values published in the NIST ThermoML archive (doi:10.1016/j.fluid.2014.12.040).

Assay: xn = mol fraction of the nth substance listed
Conditions: for surface tension liquid-gas: Wilhelmy-plate method; for mass density: 100 kPa, Liquid, Vibrating tube method

CC(O)CO (stereo not given) [1,2-propanediol] + CC(C)O
Conditions	mass density, 298.15 K [kg/m3]	mass density, 308.15 K [kg/m3]	mass density, 318.15 K [kg/m3]	mass density, 328.15 K [kg/m3]	surface tension liquid-gas, 298.15 K [mN/m]	surface tension liquid-gas, 308.15 K [mN/m]	surface tension liquid-gas, 318.15 K [mN/m]	surface tension liquid-gas, 328.15 K [mN/m]
x2 = 0	1032.69	1025.21	1017.51	1009.78	35.74	35.35	34.96	34.6
x2 = 0.05	1020.3	1012.75	1005.08	997.4	32.86	32.56	32.35	32.15
x2 = 0.1	1007.84	1000.22	992.51	984.7	31.27	30.98	30.74	30.54
x2 = 0.15	995.3	987.63	979.84	971.99	30.1	29.77	29.48	29.26
x2 = 0.2	982.74	974.98	967.11	959.2	29.09	28.74	28.42	28.18
x2 = 0.25	970.17	962.34	954.39	946.41	28.21	27.85	27.51	27.25
x2 = 0.3	957.54	949.69	941.69	933.61	27.43	27.04	26.68	26.4
x2 = 0.35	944.87	936.95	928.9	920.73	26.72	26.31	25.94	25.64
x2 = 0.4	932.21	924.2	916.09	907.91	26.06	25.64	25.25	24.93
x2 = 0.45	919.52	911.47	903.3	895.1	25.43	25.01	24.64	24.3
x2 = 0.5	906.84	898.7	890.5	882.26	24.89	24.47	24.05	23.71
x2 = 0.55	894.16	885.97	877.7	869.44	24.39	23.94	23.52	23.16
x2 = 0.6	881.5	873.25	865	856.69	23.89	23.44	23.01	22.64
x2 = 0.65	868.82	860.56	852.29	843.93	23.43	22.95	22.51	22.12
x2 = 0.7	856.16	847.8	839.59	831.21	22.99	22.49	22.03	21.62
x2 = 0.75	843.49	835.09	826.8	818.53	22.58	22.04	21.56	21.13
x2 = 0.8	830.89	822.4	813.99	805.71	22.2	21.63	21.11	20.65
x2 = 0.85	818.33	809.75	801.22	792.81	21.82	21.21	20.66	20.16
x2 = 0.9	805.84	797.18	788.63	780.09	21.47	20.82	20.23	19.68
x2 = 0.95	793.45	784.7	776.1	767.47	21.12	20.43	19.8	19.21

CC(O)CO (stereo not given) [1,2-propanediol] + O
Conditions	mass density, 298.15 K [kg/m3]	mass density, 308.15 K [kg/m3]	mass density, 318.15 K [kg/m3]	mass density, 328.15 K [kg/m3]	surface tension liquid-gas, 298.15 K [mN/m]	surface tension liquid-gas, 308.15 K [mN/m]	surface tension liquid-gas, 318.15 K [mN/m]	surface tension liquid-gas, 328.15 K [mN/m]
x1 = 0.05	1011.79	1007.53	1002.61	997.16	56.18	54.93	53.89	52.6
x1 = 0.1	1022.73	1017.48	1011.69	1005.39	50.94	49.9	48.9	47.83
x1 = 0.15	1030.33	1024.23	1017.73	1010.88	47.41	46.53	45.71	44.66
x1 = 0.2	1035.27	1028.47	1021.65	1014.32	45.19	44.36	43.45	42.52
x1 = 0.25	1038.27	1031.17	1023.85	1016.27	43.64	42.89	42.15	41.17
x1 = 0.3	1039.85	1032.55	1025.01	1017.25	42.6	41.92	41.19	40.38
x1 = 0.35	1040.55	1033.05	1025.42	1017.54	41.43	40.86	40.19	39.49
x1 = 0.4	1040.6	1033.02	1025.34	1017.47	40.47	39.78	39.24	38.57
x1 = 0.45	1040.28	1032.76	1025.05	1017.1	39.44	38.89	38.36	37.8
x1 = 0.5	1039.83	1032.3	1024.54	1016.59	38.76	38.27	37.73	37.19
x1 = 0.55	1039.24	1031.7	1023.93	1016	37.95	37.5	37.07	36.55
x1 = 0.6	1038.53	1031.03	1023.29	1015.39	37.4	36.94	36.63	36.15
x1 = 0.65	1037.84	1030.31	1022.58	1014.69	36.98	36.57	36.15	35.75
x1 = 0.7	1037.09	1029.56	1021.87	1014	36.8	36.35	35.89	35.53
x1 = 0.75	1036.33	1028.81	1021.11	1013.3	36.62	36.24	35.79	35.32
x1 = 0.8	1035.57	1028.06	1020.37	1012.54	36.44	36.1	35.66	35.17
x1 = 0.85	1034.81	1027.32	1019.61	1011.8	36.26	35.94	35.52	35.04
x1 = 0.9	1034.08	1026.59	1018.9	1011.06	36.08	35.76	35.4	34.88
x1 = 0.95	1033.35	1025.88	1018.19	1010.37	35.9	35.52	35.14	34.75
x1 = 1	1032.69	1025.21	1017.51	1009.78	35.74	35.35	34.96	34.6
